From ChEMBL document CHEMBL4420074, “Small molecule inhibitors of Dusp6 and uses therefor” (2015)
Activity calls are given as the source filed them. No cut-off for these calls is given here.

Legend:
[1] = target: T1, Dual specificity protein phosphatase (Danio rerio) (UniProt Q7T2L8); test: Inhibition of Dusp6 in (Tg(Dusp6:d2EGFP)pt6) transgenic Zebrafish assessed as activation of FGF signaling at 20 uM treated at 24 hours post fertilization and measured after 6 hrs post dose by d2EGFP fluorescence based assay relative to BCI; set-up: scale not given: the % may be the effect or the level left
T1 sequence (whole entry): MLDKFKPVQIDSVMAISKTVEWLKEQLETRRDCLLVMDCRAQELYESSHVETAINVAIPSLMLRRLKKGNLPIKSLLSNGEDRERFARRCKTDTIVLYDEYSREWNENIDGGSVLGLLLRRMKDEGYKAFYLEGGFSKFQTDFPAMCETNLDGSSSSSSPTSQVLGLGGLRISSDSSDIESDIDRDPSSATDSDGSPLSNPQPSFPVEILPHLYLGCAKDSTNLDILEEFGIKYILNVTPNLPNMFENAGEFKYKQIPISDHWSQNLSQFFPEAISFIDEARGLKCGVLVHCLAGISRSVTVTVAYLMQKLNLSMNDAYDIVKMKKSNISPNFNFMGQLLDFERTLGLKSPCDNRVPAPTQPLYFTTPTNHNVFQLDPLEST

[2] = target: T1, Dual specificity protein phosphatase (Danio rerio); test: Inhibition of Dusp6 in (Tg(Dusp6:d2EGFP)pt6) transgenic Zebrafish assessed as activation of FGF signaling by measuring expansion of rhombomere-4 and tail bud at 10 to 20 uM dosed 1 to 10-somite stage by whole mount in situ hybridization assay; type: organism-based
[3] = target: T1, Dual specificity protein phosphatase (Danio rerio); test: Inhibition of Dusp6 in (Tg(Dusp6:d2EGFP)pt6) transgenic Zebrafish assessed as activation of FGF signaling by measuring increase in dusp6 expression at 10 to 20 uM dosed 1 to 10-somite stage by whole mount in situ hybridization assay; type: organism-based
Danio rerio [4] = organism: Danio rerio; test: Induction of cardiac tissue expansion in Zebrafish embryos exposed to compound at 1 and 8-somite stages followed by compound washout in next day and further incubation until embryos reached 56 hpf; type: functional, organism-based
[5] = target: T2, Dual specificity protein phosphatase 1 (Homo sapiens) (UniProt P28562); test: Inhibition of Myc-tagged human Dusp1 expressed in TPA-stimulated human HeLa cells assessed as suppression of […] reduction in ERK phosphorylation at 0.5 to 2 uM by immunostaining based assay; type: cell-based
T2 sequence (whole entry): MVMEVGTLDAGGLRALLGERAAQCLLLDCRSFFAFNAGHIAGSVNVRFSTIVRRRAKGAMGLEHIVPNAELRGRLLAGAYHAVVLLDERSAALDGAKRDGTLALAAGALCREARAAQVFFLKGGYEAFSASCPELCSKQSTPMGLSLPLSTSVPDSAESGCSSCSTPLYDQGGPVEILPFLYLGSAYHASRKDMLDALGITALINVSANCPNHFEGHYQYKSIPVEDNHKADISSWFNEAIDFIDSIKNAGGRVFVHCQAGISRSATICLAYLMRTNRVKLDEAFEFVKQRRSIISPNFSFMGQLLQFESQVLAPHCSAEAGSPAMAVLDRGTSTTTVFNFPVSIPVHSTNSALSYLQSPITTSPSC

[6] = target: T1, Dual specificity protein phosphatase (Danio rerio); test: Inhibition of Dusp6 in (Tg(Dusp6:d2EGFP)pt6) transgenic Zebrafish assessed as activation of FGF signaling by measuring expansion of prospective mid-hindbrain boundary at 10 to 20 uM dosed 1 to 10-somite stage by whole mount in situ hybridization assay; type: organism-based
[7] = target: T1, Dual specificity protein phosphatase (Danio rerio); test: Inhibition of Dusp6 in (Tg(Dusp6:d2EGFP)pt6) transgenic Zebrafish assessed as activation of FGF signaling after 2 hrs by d2EGFP fluorescence based assay
[8] = target: T1, Dual specificity protein phosphatase (Danio rerio); test: Inhibition of Dusp6 in (Tg(Dusp6:d2EGFP)pt6) transgenic Zebrafish assessed as activation of FGF signaling at 5 uM by d2EGFP fluorescence based assay
Danio rerio [9] = organism: Danio rerio; test: (§1) Induction of cardiac tissue expansion in Zebrafish embryos assessed as induction of heart enlargement by measuring increase in cmlc2 expression exposed to compound at larval stage followed by compound washout in next day and further incubation until embryos reached 56 hpf by in situ hybridization assay; type: functional, organism-based
[10] = target: T3, Dual specificity protein phosphatase 6 (Homo sapiens) (UniProt Q16828); test: Inhibition of recombinant His-tagged Dusp6 (unknown origin) assessed as reduction in basal Dusp6 activity at 100 uM using OMFP substrate by fluorescence based assay
T3 sequence (whole entry): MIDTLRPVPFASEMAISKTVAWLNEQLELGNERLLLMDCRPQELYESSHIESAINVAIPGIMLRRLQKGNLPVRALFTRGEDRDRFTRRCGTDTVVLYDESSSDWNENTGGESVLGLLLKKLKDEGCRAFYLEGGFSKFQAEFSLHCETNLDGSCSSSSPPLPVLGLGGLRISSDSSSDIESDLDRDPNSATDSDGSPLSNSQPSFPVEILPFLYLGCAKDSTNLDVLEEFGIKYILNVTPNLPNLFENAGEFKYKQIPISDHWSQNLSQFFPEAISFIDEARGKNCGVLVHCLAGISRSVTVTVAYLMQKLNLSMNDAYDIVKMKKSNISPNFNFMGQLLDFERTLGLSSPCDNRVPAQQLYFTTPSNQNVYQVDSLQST

[11] = target: T1, Dual specificity protein phosphatase (Danio rerio); test: Inhibition of Dusp6 in (Tg(Dusp6:d2EGFP)pt6) transgenic Zebrafish assessed as activation of FGF signaling by measuring increase in sef expression at 10 to 20 uM by semi-quantitative RT-PCR analysis
[12] = target: T1, Dual specificity protein phosphatase (Danio rerio); test: Inhibition of Dusp6 in Zebrafish 1-cell stage embryos assessed as rescue of Zebrafish dusp6-mediated suppression of sef expression at 5 uM
Danio rerio [13] = organism: Danio rerio; test: Inhibition of exogenous Zebrafish spry4-mediated suppression of sef expression in Zebrafish 1-cell stage embryos at 5 uM; type: functional, organism-based
[14] = target: T1, Dual specificity protein phosphatase (Danio rerio); test: Inhibition of Dusp6 in (Tg(Dusp6:d2EGFP)pt6) transgenic Zebrafish assessed as activation of FGF signaling by measuring increase in spry4 expression at 10 to 20 uM by semi-quantitative RT-PCR analysis
[15] = target: T3, Dual specificity protein phosphatase 6 (Homo sapiens); test: Inhibition of Myc-tagged human Dusp6 expressed in TPA-stimulated human HeLa cells assessed as suppression of Dusp6-induced reduction in ERK phosphorylation by immunostaining based assay; type: cell-based
[16] = target: T1, Dual specificity protein phosphatase (Danio rerio); test: Inhibition of Dusp6 in (Tg(Dusp6:d2EGFP)pt6) transgenic Zebrafish assessed as activation of FGF signaling by measuring increase in eng3 expression at 10 to 20 uM dosed 1 to 10-somite stage by whole mount in situ hybridization assay; type: organism-based
Danio rerio [17] = organism: Danio rerio; test: as §1, with “VHMC” for “cmlc2”; type: functional, organism-based
Danio rerio [18] = organism: Danio rerio; test: Inhibition of exogenous Zebrafish XFD-mediated suppression of sef expression in Zebrafish 1-cell stage embryos at 5 uM; type: functional, organism-based
[19] = target: T1, Dual specificity protein phosphatase (Danio rerio); test: Inhibition of Dusp6 in (Tg(Dusp6:d2EGFP)pt6) transgenic Zebrafish assessed as activation of FGF signaling by measuring increase in krox20 expression at 10 to 20 uM dosed 1 to 10-somite stage by whole mount in situ hybridization assay; type: organism-based
[20] = target: T3, Dual specificity protein phosphatase 6 (Homo sapiens); test: Inhibition of recombinant His-tagged Dusp6 (unknown origin) assessed as suppression of […] dephosphorylation at 100 uM incubated for 60 mins by immunoblotting
Danio rerio [21] = organism: Danio rerio; test: Induction of cardiac tissue expansion in Zebrafish embryos exposed to compound at post 1 and 8-somite stages followed by compound washout in next day and further incubation until embryos reached 56 hpf; type: functional, organism-based
Danio rerio [22] = organism: Danio rerio; test: Induction of cardiac tissue expansion in ventricular tissue of Zebrafish embryos exposed to compound at larval stage followed by compound washout in next day and further incubation until embryos reached 56 hpf; type: functional, organism-based
[23] = target: T3, Dual specificity protein phosphatase 6 (Homo sapiens); test: Inhibition of Myc-tagged human Dusp6 expressed in TPA-stimulated human HeLa cells assessed as suppression of Dusp6-induced reduction in ERK phosphorylation at 0.5 to 2 uM by immunostaining based assay; type: cell-based
[24] = target: T1, Dual specificity protein phosphatase (Danio rerio); test: Inhibition of Dusp6 in Zebrafish assessed as assessed as activation of FGF signaling by measuring reduction in ETSRP expression relative to control
[25] = target: T1, Dual specificity protein phosphatase (Danio rerio); test: Inhibition of Dusp6 in (Tg(Dusp6:d2EGFP)pt6) transgenic Zebrafish assessed as activation of FGF signaling by measuring increase in ntl expression within notochord and tail bud at 6-somite stage at 10 to 20 uM dosed prior to gastrulation by whole mount in situ hybridization assay; type: organism-based
[26] = target: T4, Dual specificity protein phosphatase (Danio rerio) (UniProt Q6PBT4); test: Inhibition of Dusp5 in Zebrafish 1-cell stage embryos assessed as rescue of Zebrafish dusp5-mediated suppression of sef expression at 5 uM
T4 sequence (whole entry): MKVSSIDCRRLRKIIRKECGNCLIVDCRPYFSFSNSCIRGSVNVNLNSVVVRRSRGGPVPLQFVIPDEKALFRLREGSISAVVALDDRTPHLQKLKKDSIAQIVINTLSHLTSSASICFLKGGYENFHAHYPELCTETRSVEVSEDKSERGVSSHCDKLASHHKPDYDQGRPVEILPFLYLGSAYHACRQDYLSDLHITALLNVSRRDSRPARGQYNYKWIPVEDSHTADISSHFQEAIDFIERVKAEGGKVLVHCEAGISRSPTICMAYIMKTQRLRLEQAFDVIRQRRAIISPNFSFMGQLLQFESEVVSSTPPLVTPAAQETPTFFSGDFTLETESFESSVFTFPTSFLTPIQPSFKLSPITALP

Danio rerio [27] = organism: Danio rerio; test: Induction of cardiac tissue expansion in Zebrafish embryos exposed to compound at larval stage followed by compound washout in next day and further incubation until embryos reached 56 hpf; type: functional, organism-based
[28] = target: T1, Dual specificity protein phosphatase (Danio rerio); test: Inhibition of Dusp6 in (Tg(Dusp6:d2EGFP);ace mutant) transgenic Zebrafish assessed as activation of FGF signaling in mid-hindbrain boundary by d2EGFP fluorescence based assay
[29] = target: Dual specificity protein phosphatase 6 (Homo sapiens) (UniProt Q16828); test: Inhibition of recombinant His-tagged Dusp6 (unknown origin) assessed as suppression of […] dephosphorylation at 1 mM incubated for 60 mins by immunoblotting
[30] = Toxicity in (Tg(Dusp6:d2EGFP)pt6) transgenic Zebrafish assessed as induction of embryo death at 40 uM incubated for 24 hrs; set-up: species or system Danio rerio; conditions: in vivo
[31] = Toxicity in (Tg(Dusp6:d2EGFP)pt6) transgenic Zebrafish assessed as induction of embryo death at 10 uM incubated for 24 hrs; set-up: species or system Danio rerio; conditions: in vivo, other: incubation
[32] = target: T1, Dual specificity protein phosphatase (Danio rerio); test: Inhibition of Dusp6 in (Tg(Dusp6:d2EGFP)pt6) transgenic Zebrafish assessed as activation of FGF signaling at 20 uM by d2EGFP fluorescence based assay
[33] = Toxicity in (Tg(Dusp6:d2EGFP)pt6) transgenic Zebrafish assessed as induction of tail necrosis at >10 uM incubated for 24 hrs; set-up: species or system Danio rerio; conditions: in vivo
[34] = Toxicity in (Tg(Dusp6:d2EGFP)pt6) transgenic Zebrafish assessed as induction of embryo death at 20 uM incubated for 24 hrs; set-up: species or system Danio rerio; conditions: in vivo, other: incubation
[35] = Toxicity in (Tg(Dusp6:d2EGFP)pt6) transgenic Zebrafish assessed as induction of embryo death at >10 uM incubated for 24 hrs; set-up: species or system Danio rerio; conditions: in vivo

In the case of `O=C1N[C@H]2[C@H](CS[C@H]2CCCCC(=O)N[C@H]2CC[C@H](NC3/C(=C\c4ccccc4)C(=O)c4ccccc43)CC2)N1` (stereo partly drawn), the Activity [1] is reported as “inactive”.

In the case of `O=C1/C(=C/c2ccccc2)C(NC2CCCCC2)c2ccccc21` (stereo in doubt; form 2), the Activity [1] is reported as 82%.

With `O=C1/C(=C/c2ccccc2)C(NC2CCCCC2)c2ccccc21` (stereo in doubt; form 1) [listing 1 of 2 here] the inhibition [2] was “Active”, the inhibition [3] was “Active” and the Activity (Danio rerio [4]) was “Active”. For the same molecule, the inhibition [5] was “Active”, the inhibition [6] was “Active” and the inhibition [7] was “Dose-dependent effect”. The inhibition [8] was “Active”, the Activity (Danio rerio [9]) was “Active” and the inhibition [10] was “inactive”. The inhibition [11] was “Active”, the inhibition [12] was “Active” and the inhibition (Danio rerio [13]) was “inactive”. For the same molecule, the inhibition [14] was “Active”, the inhibition [15] was “Active” and the inhibition [16] was “Active”. For the same molecule, the Activity [1] was 100%, the Activity (Danio rerio [17]) was “Active” and the inhibition (Danio rerio [18]) was “inactive”. For the same molecule, the inhibition [19] was “Active”, the inhibition [20] was “Active” and the Activity (Danio rerio [21]) was “inactive”. For the same molecule, the Activity (Danio rerio [22]) was “Active”, the inhibition [23] was “Active” and the inhibition [24] was “Active”. For the same molecule, the inhibition [25] was “Active”, the inhibition [26] was “inactive” and the Activity (Danio rerio [27]) was “Dose-dependent effect”. The inhibition [28] was “inactive”.

In the case of SODIUM ORTHOVANAD, the inhibition [29] is reported as “Active”.

For `O=C1/C(=C/c2ccccc2)C(NC2CCCCC2)c2cc(Br)ccc21` (stereo not drawn), the Activity [30] was “Non-Toxic”.

With `O=C1/C(=C/c2ccccc2)C(N2CCOCC2)c2ccccc21` (stereo not drawn) the mortality at 24 h, 10 µM [31] was 100%.

For `O=C1CC(NC2CCCCC2)c2ccccc21` (stereo not drawn), the inhibition [5] was “inactive”, the inhibition [32] was “inactive” and the inhibition [20] was “inactive”. For the same molecule, the inhibition [23] was “inactive”.

For `O=C1/C(=C/c2ccccc2)Cc2ccccc21`, the inhibition [32] was “inactive”.

With `N#Cc1ccc2c(c1)C(NC1CCCCC1)/C(=C\c1ccccc1)C2=O` (stereo not drawn) the Activity [1] was “inactive”.

In the case of `CC(C)(C)OC(=O)N[C@H]1CC[C@H](NC2/C(=C\c3ccccc3)C(=O)c3ccccc32)CC1` (stereo partly drawn), the Activity [1] is reported as “inactive”.

With `O=C1/C(=C/c2ccccc2)C(NC2CCCCC2)c2ccccc21` (stereo in doubt; form 1) [listing 2 of 2 here] the Activity [33] was “Toxic”, the mortality at 24 h, 20 µM [34] was 100% and the Activity [35] was “Toxic”.
